Data reported in patent US10676479B2, “Imidazolepyridine compounds and uses thereof” (Novartis AG, priority 2016, dated 2020).

How the values were obtained:
[1] = molecular target: wild type PRC2 (wtPRC2) complex (Homo sapiens (Human), UniProt O75530); assay: EED LC-MS assay; type: biochemical; conditions: EED LC-MS Qualified assay; read-out: (b) IC50
Description: EED LC-MS Assay Representative compounds of the present invention were serially and separately diluted 3-fold in DMSO to obtain a total of eight or twelve concentrations. […] A 6 μL solution of 3 μM of the peptide substrate H3K27Me0 (histone H3[21-44]-biotin) in reaction buffer was added to initiate each reaction. […] The data were then fit to a dose response equation using the program Helios to get the IC50 values of the test compound.

EED (1-441)-His protein = EED (1-441)-His protein (Homo sapiens (Human), UniProt O75530); assay: EED-H3K27Me3 peptide competition binding assay by AlphaScreen; conditions: EED Alphascreen binding Qualified assay
[2] = test system: H3K27 methylation in G401 cell; assay: ELISA (H3K27 methylation) assay; type: cell-based; conditions: Homo sapiens, G-401, ELISA Qualified assay, 48 h, read-out: (c) IC50
How it was run: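 G401 cells given 3-fold serial dilutions (eight or twelve points, top 20 μM) for 48 h. Lysate ELISA for H3K27 methylation normalized to H3 signal, % inhibition versus DMSO, IC50 from dose-response fit.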

Sequence of wild type PRC2 (wtPRC2) complex (O75530 whole entry): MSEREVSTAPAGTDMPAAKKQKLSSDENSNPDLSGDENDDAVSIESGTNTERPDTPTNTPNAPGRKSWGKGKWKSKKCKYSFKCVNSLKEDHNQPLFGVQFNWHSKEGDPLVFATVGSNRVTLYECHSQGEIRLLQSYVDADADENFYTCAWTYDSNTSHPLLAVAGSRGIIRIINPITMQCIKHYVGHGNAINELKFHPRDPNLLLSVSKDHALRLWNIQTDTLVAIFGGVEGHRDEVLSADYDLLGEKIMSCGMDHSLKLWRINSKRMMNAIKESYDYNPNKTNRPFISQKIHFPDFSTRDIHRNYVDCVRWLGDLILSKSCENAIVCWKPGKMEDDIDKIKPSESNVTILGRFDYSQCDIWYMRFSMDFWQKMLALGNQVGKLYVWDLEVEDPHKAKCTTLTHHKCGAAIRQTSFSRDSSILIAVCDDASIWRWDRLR
Sequence of wild type PRC2 (wtPRC2) complex (Q15910 whole entry partner): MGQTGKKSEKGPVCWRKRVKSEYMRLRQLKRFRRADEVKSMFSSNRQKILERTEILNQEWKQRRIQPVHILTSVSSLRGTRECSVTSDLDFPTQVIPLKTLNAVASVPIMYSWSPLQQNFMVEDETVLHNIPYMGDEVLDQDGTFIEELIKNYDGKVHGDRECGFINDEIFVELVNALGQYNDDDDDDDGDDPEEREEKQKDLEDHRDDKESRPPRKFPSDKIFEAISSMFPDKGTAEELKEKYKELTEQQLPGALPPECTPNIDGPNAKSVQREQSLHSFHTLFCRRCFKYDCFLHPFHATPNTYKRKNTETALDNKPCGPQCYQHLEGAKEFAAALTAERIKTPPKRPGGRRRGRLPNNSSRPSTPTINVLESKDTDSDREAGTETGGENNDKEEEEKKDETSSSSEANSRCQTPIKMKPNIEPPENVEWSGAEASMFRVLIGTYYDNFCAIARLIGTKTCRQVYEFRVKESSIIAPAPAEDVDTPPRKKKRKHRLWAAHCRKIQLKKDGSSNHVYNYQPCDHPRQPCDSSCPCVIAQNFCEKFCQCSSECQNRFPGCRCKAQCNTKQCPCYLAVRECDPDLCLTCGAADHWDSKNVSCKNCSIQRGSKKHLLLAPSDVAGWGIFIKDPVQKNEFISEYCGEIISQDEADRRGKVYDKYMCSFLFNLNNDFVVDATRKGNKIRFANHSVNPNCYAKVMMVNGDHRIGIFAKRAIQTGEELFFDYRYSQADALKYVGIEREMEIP
Sequence of wild type PRC2 (wtPRC2) complex (Q15022 whole entry partner): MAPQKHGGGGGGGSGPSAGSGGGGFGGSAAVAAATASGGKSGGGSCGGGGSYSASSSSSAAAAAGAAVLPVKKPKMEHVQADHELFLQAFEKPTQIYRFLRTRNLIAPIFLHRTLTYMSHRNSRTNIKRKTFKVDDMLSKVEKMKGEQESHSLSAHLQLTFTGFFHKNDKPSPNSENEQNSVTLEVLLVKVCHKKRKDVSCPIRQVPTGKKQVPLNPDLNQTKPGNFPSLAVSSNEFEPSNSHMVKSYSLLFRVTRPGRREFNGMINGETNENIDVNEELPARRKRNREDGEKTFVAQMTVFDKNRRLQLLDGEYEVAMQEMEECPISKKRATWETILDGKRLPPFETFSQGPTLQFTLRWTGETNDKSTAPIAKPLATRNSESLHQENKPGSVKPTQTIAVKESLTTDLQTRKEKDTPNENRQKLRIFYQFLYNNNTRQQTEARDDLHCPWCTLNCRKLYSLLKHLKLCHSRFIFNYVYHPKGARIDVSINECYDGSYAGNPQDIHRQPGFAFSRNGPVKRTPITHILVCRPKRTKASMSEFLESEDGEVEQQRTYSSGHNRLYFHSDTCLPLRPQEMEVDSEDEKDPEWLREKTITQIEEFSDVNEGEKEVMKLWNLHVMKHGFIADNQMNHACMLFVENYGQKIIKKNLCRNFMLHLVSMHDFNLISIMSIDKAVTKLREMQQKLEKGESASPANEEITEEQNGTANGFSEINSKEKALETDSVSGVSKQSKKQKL
Sequence of EED (1-441)-His protein (O75530 whole entry): as the sequence (O75530 whole entry) above

Compound	IC50 [1]	IC50 (EED (1-441)-His protein)	IC50 [2]
Cc1ncc(-c2cnc(NCc3c(F)ccc4c3CCO4)n3cnc(S(C)(=O)=O)c23)c(C)n1 [Example 101, 8-(2,4-dimethylpyrimidin-5-yl)-N-((5-fluoro-2,3-dihydrobenzofuran-4-yl)methyl)-1-(methylsulfonyl)imidazo[1,5-c]pyrimidin-5-amine]	0.0133 µM	0.0036 µM	0.0091 µM
CS(=O)(=O)c1ncn2c(NCc3c(F)ccc4c3CCO4)ncc(-c3cccnc3)c12 [Example 102, N-((5-fluoro-2,3-dihydrobenzofuran-4-yl)methyl)-1-(methylsulfonyl)-8-(pyridin-3-yl)imidazo[1,5-c]pyrimidin-5-amine]	0.017 µM	0.0069 µM	0.0024 µM
CS(=O)(=O)c1ncn2c(NCc3c(F)ccc4c3CCO4)ncc(Br)c12 [Example 103, 8-bromo-N-((5-fluoro-2,3-dihydrobenzofuran-4-yl)methyl)-1-(methylsulfonyl)imidazo[1,5-c]pyrimidin-5-amine]	0.01 µM	0.005 µM	0.0361 µM
CCS(=O)(=O)c1ncn2c(NCc3c(F)ccc4c3CCO4)ncc(-c3cnc(C)nc3C)c12 [Example 104, 8-(2,4-dimethylpyrimidin-5-yl)-1-(ethylsulfonyl)-N-((5-fluoro-2,3-dihydrobenzofuran-4-yl)methyl)imidazo[1,5-c]pyrimidin-5-amine]	0.0105 µM	0.003 µM	0.0021 µM
Cc1ncccc1-c1cnc(NCc2c(F)ccc3c2CCO3)n2cnc(C(=O)NCCO)c12 [Example 107, 5-(((5-fluoro-2,3-dihydrobenzofuran-4-yl)methyl)amino)-N-(2-hydroxyethyl)-8-(2-methylpyridin-3-yl)imidazo[1,5-c]pyrimidine-1-carboxamide]	0.0069 µM	0.0077 µM	0.0256 µM
Cc1ncccc1-c1cnc(NCc2c(F)ccc3c2CCO3)n2cnc(C(=O)NN)c12 [Example 108, 5-(((5-fluoro-2,3-dihydrobenzofuran-4-yl)methyl)amino)-8-(2-methylpyridin-3-yl)imidazo[1,5-c]pyrimidine-1-carbohydrazide]	0.0136 µM	0.007 µM	0.0131 µM

Results, then the molecule that gave them:

IC50 [1]	IC50 (EED (1-441)-His protein)	IC50 [2]	Compound
0.0168 µM	0.0158 µM	0.114 µM	CCOC(=O)c1ncn2c(NCc3cc(OC)c(F)cc3F)ncc(-c3cccnc3C)c12 [Example 96, ethyl 5-((2,4-difluoro-5-methoxybenzyl)amino)-8-(2-methylpyridin-3-yl)imidazo[1,5-c]pyrimidine-1-carboxylate]
0.0167 µM	0.0196 µM	0.2 µM	CCOC(=O)c1ncn2c(NCc3cc(OC)c(F)cc3F)ncc(-c3ccc(S(=O)(=O)N(C)C)cc3)c12 [Example 97, ethyl 5-((2,4-difluoro-5-methoxybenzyl)amino)-8-(4-(N,N-dimethylsulfamoyl)phenyl)imidazo[1,5-c]pyrimidine-1-carboxylate]
0.0248 µM	0.024 µM	0.0316 µM	CCOC(=O)c1ncn2c(NCc3c(F)cccc3OC)ncc(-c3cnc(C)nc3C)c12 [Example 98, ethyl 8-(2,4-dimethylpyrimidin-5-yl)-5-((2-fluoro-6-methoxybenzyl)amino)imidazo[1,5-c]pyrimidine-1-carboxylate]
0.0146 µM	0.016 µM	0.0686 µM	CCOC(=O)c1ncn2c(NCc3c(F)cccc3OC)ncc(-c3cccnc3C)c12 [Example 99, ethyl 5-((2-fluoro-6-methoxybenzyl)amino)-8-(2-methylpyridin-3-yl)imidazo[1,5-c]pyrimidine-1-carboxylate]
0.0304 µM	0.0108 µM	0.0401 µM	Cc1ncccc1-c1cnc(NCc2c(F)ccc3c2CCO3)n2cnc(C(=O)N(C)C)c12 [Example 105, 5-(((5-fluoro-2,3-dihydrobenzofuran-4-yl)methyl)amino)-N,N-dimethyl-8-(2-methylpyridin-3-yl)imidazo[1,5-c]pyrimidine-1-carboxamide]
